Test results taken from patent publication US10239880B2, “Cyclopenta[d]pyrimidines and substituted cyclopenta[d]pyrimidines as antitubulin and microtubule targeting agents, monocyclic pyrimidines as tubulin inhibitors, and pyrrolopyrimidines as targeted antifolates and tubulin and multiple receptor tyrosine kinase inhibition and antitumor agents” (Duquesne University of the Holy Spirit, priority 2015, dated 2019).
Structures can show the parent of a compound that is named as a salt. Where two headings read alike, the source gives them in different places. Values belong to the molecule of their own block, whether it stands above or below them.

Columns and labels:
A-10 cells = assay: Microtubule depolymerization, cell-based phenotypic assay in A-10 cells
EGFR = EGFR (Homo sapiens, UniProt P00533); assay: Kinase inhibition, whole-cell assay, EGFR; assay type: cell-based
Chain of EGFR (P00533 25-1210, species assumed): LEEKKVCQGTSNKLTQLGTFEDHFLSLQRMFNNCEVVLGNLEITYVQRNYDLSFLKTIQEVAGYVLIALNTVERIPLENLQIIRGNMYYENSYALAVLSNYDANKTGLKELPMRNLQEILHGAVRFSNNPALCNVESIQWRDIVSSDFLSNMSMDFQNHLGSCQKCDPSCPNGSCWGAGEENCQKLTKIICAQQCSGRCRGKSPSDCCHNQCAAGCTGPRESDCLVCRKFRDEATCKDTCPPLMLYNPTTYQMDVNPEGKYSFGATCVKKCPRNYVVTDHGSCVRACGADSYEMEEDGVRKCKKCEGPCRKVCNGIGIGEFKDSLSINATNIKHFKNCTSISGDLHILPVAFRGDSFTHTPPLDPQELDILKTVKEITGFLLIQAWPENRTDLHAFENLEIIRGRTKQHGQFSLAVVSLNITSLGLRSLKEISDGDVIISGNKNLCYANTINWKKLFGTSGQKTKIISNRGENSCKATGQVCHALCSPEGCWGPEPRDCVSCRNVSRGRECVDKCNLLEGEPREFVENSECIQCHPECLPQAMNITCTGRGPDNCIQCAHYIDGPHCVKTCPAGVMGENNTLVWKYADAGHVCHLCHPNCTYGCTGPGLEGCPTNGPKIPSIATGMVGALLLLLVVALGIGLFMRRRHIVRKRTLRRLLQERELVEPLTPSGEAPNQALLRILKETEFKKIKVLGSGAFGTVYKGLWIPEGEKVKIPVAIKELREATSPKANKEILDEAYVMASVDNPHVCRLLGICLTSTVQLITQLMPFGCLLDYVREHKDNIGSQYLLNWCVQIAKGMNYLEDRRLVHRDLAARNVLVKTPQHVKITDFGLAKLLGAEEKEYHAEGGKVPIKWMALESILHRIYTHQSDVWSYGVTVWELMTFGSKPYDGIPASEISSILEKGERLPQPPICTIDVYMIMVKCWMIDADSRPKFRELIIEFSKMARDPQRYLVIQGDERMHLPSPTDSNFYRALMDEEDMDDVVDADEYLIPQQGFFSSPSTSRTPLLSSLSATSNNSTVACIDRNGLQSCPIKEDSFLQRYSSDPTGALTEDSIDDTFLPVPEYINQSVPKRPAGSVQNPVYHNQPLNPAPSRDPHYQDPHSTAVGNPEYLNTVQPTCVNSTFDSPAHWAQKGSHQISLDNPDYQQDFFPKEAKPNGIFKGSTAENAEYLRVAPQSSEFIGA

MDA-MB-435 xenograft = MDA-MB-435 xenograft trial; details: IP 75 mg/kg; for adverse effects / toxicity in xenograft trial: cumulative dosing
A431 = A431 cytotoxicity; details: Homo sapiens
MDA-MB-435 cancer cells = assay: Antiproliferative effect in MDA-MB-435 cancer cells (SRB assay); assay type: cell-based
PDGFR-β = PDGFR-β (Homo sapiens, UniProt P09619); assay: Kinase inhibition, whole-cell assay, PDGFR-β; assay type: cell-based
Chain of PDGFR-β (P09619 33-1106, species assumed): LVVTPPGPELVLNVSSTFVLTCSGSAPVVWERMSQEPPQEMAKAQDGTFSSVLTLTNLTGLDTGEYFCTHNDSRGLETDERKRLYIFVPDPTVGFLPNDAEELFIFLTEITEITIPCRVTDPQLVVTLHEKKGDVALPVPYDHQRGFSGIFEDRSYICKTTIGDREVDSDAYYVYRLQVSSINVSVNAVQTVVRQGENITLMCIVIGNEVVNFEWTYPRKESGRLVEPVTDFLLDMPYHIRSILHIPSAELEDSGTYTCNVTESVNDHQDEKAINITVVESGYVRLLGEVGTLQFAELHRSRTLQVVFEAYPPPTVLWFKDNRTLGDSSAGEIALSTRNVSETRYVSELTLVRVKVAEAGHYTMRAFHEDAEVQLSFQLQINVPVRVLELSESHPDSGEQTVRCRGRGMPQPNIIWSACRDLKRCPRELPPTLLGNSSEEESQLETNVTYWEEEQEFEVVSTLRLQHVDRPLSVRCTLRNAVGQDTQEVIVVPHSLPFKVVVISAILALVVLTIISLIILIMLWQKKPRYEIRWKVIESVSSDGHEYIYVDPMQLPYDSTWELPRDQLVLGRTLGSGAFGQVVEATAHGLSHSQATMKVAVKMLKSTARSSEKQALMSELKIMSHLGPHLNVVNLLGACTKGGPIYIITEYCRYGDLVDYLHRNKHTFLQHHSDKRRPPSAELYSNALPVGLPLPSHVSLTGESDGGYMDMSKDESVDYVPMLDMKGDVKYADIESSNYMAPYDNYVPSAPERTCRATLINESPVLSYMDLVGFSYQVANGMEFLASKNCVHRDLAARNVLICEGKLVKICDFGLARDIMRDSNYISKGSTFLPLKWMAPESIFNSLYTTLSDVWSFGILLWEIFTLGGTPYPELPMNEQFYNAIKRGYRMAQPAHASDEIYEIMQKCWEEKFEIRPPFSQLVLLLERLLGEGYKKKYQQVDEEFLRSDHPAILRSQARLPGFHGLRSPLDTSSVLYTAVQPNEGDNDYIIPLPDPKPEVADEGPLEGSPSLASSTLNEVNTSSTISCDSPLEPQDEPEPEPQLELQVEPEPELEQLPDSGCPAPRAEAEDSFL

D4 (FRβ) = assay: Proliferation inhibition, FRβ-expressing D4 cells; assay type: cell-based
KB (RFC/FRα/PCFT) = assay: Growth inhibition of KB tumor cells; assay type: cell-based, human
Procedure: Cell proliferation was assayed with CellTiter-Blue™ with a fluorescent plate reader.

PC43-10 (RFC) = assay: Proliferation inhibition, RFC-expressing PC43-10 cells; assay type: cell-based, Chinese hamster; details: Table 11
Text: (§1) AGF215, AGF234 and AGF263 were compared to AGF23 as inhibitors of proliferation of engineered Chinese hamster ovary (CHO) cells expressing human PCFT (R2/PCFT4), FRα (RT16), or RFC (PC43-10).

RT16 (FRα) = assay: Proliferation inhibition, FRα-expressing RT16 cells; assay type: cell-based, Chinese hamster
Text: as §1

Parental HeLa = assay: Antiproliferative activity, parental HeLa; assay type: cell-based; details: Homo sapiens, Table 7, read-out: IC50 ± SD Parental HeLa
Text: (§2) Another clinically relevant drug resistance mechanism of tubulin-targeting agents is the overexpression of the βIII isotype of tubulin.

[1] = tested on: β-III overexpressing HeLa; assay: Antiproliferative activity, β-III overexpressing HeLa; assay type: cell-based; details: Homo sapiens, HeLa; Table 7; read-out: IC50 ± SD β-III overexpressing HeLa
Text: as §2

Parental SK-OV-3 = assay: Antiproliferative activity, parental SK-OV-3; assay type: cell-based; details: Homo sapiens, Table 6, read-out: IC50 ± SD Parental SK-OV-3
[2] = tested on: Pgp expressing SK-OV-3 MDR1-6-6; assay: Antiproliferative activity, Pgp expressing SK-OV-3 MDR1-6-6; assay type: cell-based; details: Homo sapiens, SK-OV-3; Table 6; read-out: IC50 ± SD Pgp expressing SK-OV-3 MDR1-6-6
VEGFR2 = VEGFR2 (Homo sapiens, UniProt P35968); assay: Kinase inhibition, whole-cell assay, VEGFR2 (Flk-1); assay type: cell-based; details: Table 3b; unit inferred
Chain of VEGFR2 (P35968 20-1356, species assumed): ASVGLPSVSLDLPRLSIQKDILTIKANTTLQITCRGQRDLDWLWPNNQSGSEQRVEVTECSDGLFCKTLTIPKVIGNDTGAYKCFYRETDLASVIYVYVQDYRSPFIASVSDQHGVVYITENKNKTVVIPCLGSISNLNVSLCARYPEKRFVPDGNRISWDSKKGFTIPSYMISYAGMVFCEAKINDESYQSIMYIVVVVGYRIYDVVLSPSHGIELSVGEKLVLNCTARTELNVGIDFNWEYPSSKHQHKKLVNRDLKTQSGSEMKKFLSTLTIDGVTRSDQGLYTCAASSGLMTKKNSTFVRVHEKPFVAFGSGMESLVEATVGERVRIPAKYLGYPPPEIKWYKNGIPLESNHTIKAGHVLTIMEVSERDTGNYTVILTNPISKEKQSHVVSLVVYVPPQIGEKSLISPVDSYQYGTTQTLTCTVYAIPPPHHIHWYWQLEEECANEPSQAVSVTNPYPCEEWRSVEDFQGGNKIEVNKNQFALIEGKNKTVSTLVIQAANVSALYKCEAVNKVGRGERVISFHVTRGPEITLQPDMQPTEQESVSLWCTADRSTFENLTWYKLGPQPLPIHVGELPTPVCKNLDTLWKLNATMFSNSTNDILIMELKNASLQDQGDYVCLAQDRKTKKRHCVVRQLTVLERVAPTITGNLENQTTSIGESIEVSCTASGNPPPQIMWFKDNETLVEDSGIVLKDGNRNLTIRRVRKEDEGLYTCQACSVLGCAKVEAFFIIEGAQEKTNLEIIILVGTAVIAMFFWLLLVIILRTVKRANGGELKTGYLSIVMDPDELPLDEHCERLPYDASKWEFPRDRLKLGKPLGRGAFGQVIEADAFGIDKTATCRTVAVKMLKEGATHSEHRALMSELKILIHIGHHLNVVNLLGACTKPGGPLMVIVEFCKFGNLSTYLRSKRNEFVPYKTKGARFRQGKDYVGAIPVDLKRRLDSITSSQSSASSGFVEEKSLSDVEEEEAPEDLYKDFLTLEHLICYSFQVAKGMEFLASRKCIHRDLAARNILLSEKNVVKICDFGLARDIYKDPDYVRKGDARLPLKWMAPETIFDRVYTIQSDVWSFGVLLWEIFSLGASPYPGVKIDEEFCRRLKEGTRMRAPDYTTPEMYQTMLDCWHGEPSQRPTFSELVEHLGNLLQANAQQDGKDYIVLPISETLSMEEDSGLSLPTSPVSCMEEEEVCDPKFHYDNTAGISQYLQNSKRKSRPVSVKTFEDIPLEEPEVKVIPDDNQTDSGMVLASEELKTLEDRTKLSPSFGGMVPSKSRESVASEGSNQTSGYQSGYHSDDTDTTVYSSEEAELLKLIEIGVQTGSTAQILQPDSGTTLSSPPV

U251 = U251 cytotoxicity; assay type: cell-based; details: Homo sapiens, U-251; Table 3b; unit inferred
CAM = CAM (gi50); details: Table 3b; unit inferred
[3] = Rattus norvegicus, A10, read-out: Microtubule depolymerization EC50
[4] = Table 1, IC50 ± SD, read-out: Kinase inhibition IC50 [whole-cell assays] EGFR
[5] = Table 3b, unit inferred, read-out: EGFR kinase inhibition
[6] = A-431, read-out: A431 cytotoxicity, Table 1, IC50 ± SD
[7] = A-431, read-out: A431 cytotoxicity, Table 3b, unit inferred
[8] = Homo sapiens, MDA-MB-435, read-out: MDA-MB-435 IC50
[9] = Table 1, IC50 ± SD, read-out: Kinase inhibition IC50 [whole-cell assays] PDGFR-β
[10] = Table 3b, unit inferred, read-out: PDGFR kinase inhibition
[11] = Table 11, read-out: IC50 FRβ D4
[12] = with folic acid (+FA), read-out: IC50 FRβ D4 (+FA)
[13] = Table 11, read-out: IC50 RFC/FRα/PCFT KB
[14] = with folic acid (+FA), read-out: IC50 RFC/FRα/PCFT KB (+FA)
[15] = with folic acid (+FA), read-out: IC50 FRα RT16 (+FA)
[16] = Rattus norvegicus, A10, read-out: EC50 in A-10 cells (Concentration that causes 50% tubulin loss in A-10 cells), Table 4, Section II compounds
[17] = Table 3, read-out: Microtubule depolymerization EC50
[18] = Table 3, read-out: MDA-MB-435 IC50
[19] = Rattus norvegicus, A10, Table 3a, unit inferred, read-out: EC50 for Microtubule Depolymerization in A · 10 Cells
[20] = Homo sapiens, Table 3a, unit inferred, read-out: IC50 ± SD in MDA-435 Cells

SMILES: COc1ccc(N(C)c2nc(C)nc3ccn(C)c23)cc1 [2•HCl]
- EC50 (A-10 cells; Rattus norvegicus, A10, read-out: EC50 for Microtubule Depolymerization in A · 10 Cells): 7.4 nM
- EC50 (A-10 cells; [3]): 7.4 nM
- IC50 (EGFR; [4]): 25.2 ± 0.41 nM
- IC50 (EGFR; [5]): 89.3 ± 9.2 nM
- final average tumor mass compared to the vehicle (MDA-MB-435 xenograft; Day 15): statistically significant (p<0.001) lower final average tumor mass
- mouse weight change (MDA-MB-435 xenograft; compared to the vehicle): recoverable weight loss
- adverse effects / toxicity in xenograft trial (MDA-MB-435 xenograft; 75 mg/kg): noticeable adverse effects on the central nervous system
- adverse effects / toxicity in xenograft trial (MDA-MB-435 xenograft; listed as AG 141, 75 mg/kg): severe seizures in two mice
- adverse effects / toxicity in xenograft trial (MDA-MB-435 xenograft; listed as AG141, 75 mg/kg): unacceptable cumulative CNS toxicities
- tumor growth during the trial (MDA-MB-435 xenograft; nude mice): inhibited tumor growth
- IC50 (A431; [6]): 8.8 ± 0.9 nM
- IC50 (A431; [7]): 107 ± 18 nM
- IC50 (MDA-MB-435 cancer cells; [8]): 4.3 ± 0.3 nM
- IC50 (MDA-MB-435 cancer cells; Homo sapiens, read-out: IC50 ± SD in MDA-435 Cells): 4.3 ± 0.3 nM
- IC50 (PDGFR-β; [9]): 67 ± 10.2 nM
- IC50 (PDGFR-β; [10]): > 200 nM

SMILES: COc1ccc([C@@H](C)N(C)c2nc(C)nc3c2CCC3)cc1 [Compound 11]
- EC50 (A-10 cells; [16]): > 10000 nM

SMILES: COc1ccc(N(C)c2nc(C)nc3cc[nH]c23)cc1 [1•HCl]
- EC50 (A-10 cells; [3]): 1200 nM
- IC50 (EGFR; [4]): 29.5 ± 3.1 nM
- IC50 (A431; [6]): 215 ± 30.1 nM
- IC50 (MDA-MB-435 cancer cells; [8]): 96 ± 5.3 nM
- IC50 (PDGFR-β; [9]): 250 ± 20.6 nM

SMILES: CSc1ccc(N(C)c2nc(C)nc3cc[nH]c23)cc1 [4•HCl]
- EC50 (A-10 cells; [17]): 1100 nM
- IC50 (MDA-MB-435 cancer cells; [18]): 49.9 ± 10.4 nM

SMILES: Nc1nc2[nH]c(CCCNc3ccc(C(=O)N[C@@H](CCC(=O)O)C(=O)O)cc3)cc2c(=O)[nH]1 [AGF234]
- IC50 (D4 (FRβ); [11]): 0.84 nM
- IC50 (D4 (FRβ); [12]): 316 nM
- IC50 (KB (RFC/FRα/PCFT); [13]): 0.74 nM
- IC50 (KB (RFC/FRα/PCFT); [14]): 938 nM
- IC50 (PC43-10 (RFC)): 670 nM
- IC50 RFC PC43-10 (PC43-10 (RFC)): low level of activity
- IC50 (RT16 (FRα); Table 11, read-out: IC50 FRα RT16): 1.4 nM
- IC50 (RT16 (FRα); [15]): 136 nM

SMILES: COc1ccc2c(c1)CCCN2c1nc(Cl)nc2ccn(C)c12 [Table 3a 23]
- IC50 (VEGFR2): 15.2 ± 2 nM
- EC50 (A-10 cells; [19]): 3.31 nM
- IC50 (U251): 3.8 ± 0.5 nM
- IC50 (EGFR; [5]): 9 ± 0.9 nM
- IC50 (A431; [7]): 3 ± 0.3 nM
- GI50 (CAM): 7.6 ± 1 nM
- IC50 (MDA-MB-435 cancer cells; [20]): 4.1 ± 0.1 nM
- IC50 (PDGFR-β; [10]): 8.4 ± 0.8 nM

SMILES: COc1ccc(N(C)c2nc(C)nc3c2CCC3)cc1 [Compound 1]
- EC50 (A-10 cells; [16]): 25.9 nM
- IC50 (Parental HeLa): 12 ± 1.2 nM
- IC50 [1]: 9.6 ± 0.9 nM
- IC50 (Parental SK-OV-3): 11.3 ± 0.2 nM
- IC50 [2]: 16.4 ± 0.4 nM
- IC50 (MDA-MB-435 cancer cells; Homo sapiens, MDA-MB-435, Table 4, Section II compounds, SRB assay, read-out: IC50 ± SD (MDA-MB-435) Cancer cells): 7 ± 0.7 nM

SMILES: CSc1ccc(N(C)c2nc(C)nc3ccn(C)c23)cc1 [5•HCl]
- EC50 (A-10 cells; [17]): 23 nM
- IC50 (MDA-MB-435 cancer cells; [18]): 6.2 ± 1 nM

Second part, led by results:

- IC50 (KB (RFC/FRα/PCFT); [13]): 1.54 nM
- IC50 (KB (RFC/FRα/PCFT); [14]): 767 nM
SMILES: Nc1nc2[nH]c(CCCOc3ccc(C(=O)N[C@@H](CCC(=O)O)C(=O)O)cc3)cc2c(=O)[nH]1 [AGF215]
- IC50 (D4 (FRβ); [11]): 3.8 nM
- IC50 (D4 (FRβ); [12]): > 1000 nM
- IC50 (PC43-10 (RFC)): > 1000 nM
- IC50 RFC PC43-10 (PC43-10 (RFC)): inactive
- IC50 (RT16 (FRα); [15]): > 1000 nM

- IC50 (KB (RFC/FRα/PCFT); [13]): 5.8 nM
- IC50 (KB (RFC/FRα/PCFT); [14]): 32 nM
SMILES: Cc1nc2ccc3ccc(CNc4ccc5c(c4)CN([C@@H](CCC(=O)O)C(=O)O)C5=O)cc3c2c(=O)[nH]1 [GW1843U89]

- IC50 [1]: 18.8 ± 1.6 nM
- IC50 [2]: 47.5 ± 2.4 nM
SMILES: COc1ccc(N(C)c2nc(C)nc3c2CCC3)cc1C [Compound 7]
- IC50 (Parental HeLa): 23 ± 1 nM
- IC50 (Parental SK-OV-3): 23.9 ± 2.5 nM

- EC50 (A-10 cells; [16]): > 10000 nM
SMILES: COc1ccc([C@H](C)N(C)c2nc(C)nc3c2CCC3)cc1 [Compound 10]

- EC50 (A-10 cells; [16]): 11300 nM
SMILES: COc1ccc(CN(C)c2nc(C)nc3c2CCC3)cc1 [Section II compound 12]

- EC50 (A-10 cells; [16]): > 10000 nM
SMILES: Cc1nc2c(c(N(C)c3ccc(S(C)(=O)=O)cc3)n1)CCC2 [Compd 5]

- IC50 (VEGFR2): 33.9 ± 3.9 nM
- EC50 (A-10 cells; [19]): 2.7 nM
- IC50 (EGFR; [5]): 16.4 ± 2.6 nM
- IC50 (MDA-MB-435 cancer cells; [20]): 3.6 ± 0.3 nM
- IC50 (PDGFR-β; [10]): 10.8 ± 1.6 nM
SMILES: CSc1ccc(N(C)c2nc(Cl)nc3ccn(C)c23)cc1 [Table 3a 27]
- IC50 (U251): 11.3 ± 1.8 nM
- IC50 (A431; [7]): 8.2 ± 1.3 nM
- GI50 (CAM): 45.2 ± 5.2 nM
